According to patent US20140249135A1, “PIM KINASE INHIBITORS AND METHODS OF THEIR USE” (NOVARTIS AG, priority 2007, published 2014):
Like-named read-outs stand apart in the source and are kept apart here.

Key:
Assay type in all cases: biochemical
Pim1 kinase = Pim1 kinase (Homo sapiens, UniProt P11309); experiment: Pim1 ATP depletion assay; details: Pim1 ATP depletion assay;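 note: Luciferase-luciferin luminescence readout of residual ATP after PIM1 transfers phosphate to a peptide substrate, 40 µM ATP added, reaction run to roughly half ATP consumption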
Pim1 kinase, sequence (P11309 whole entry): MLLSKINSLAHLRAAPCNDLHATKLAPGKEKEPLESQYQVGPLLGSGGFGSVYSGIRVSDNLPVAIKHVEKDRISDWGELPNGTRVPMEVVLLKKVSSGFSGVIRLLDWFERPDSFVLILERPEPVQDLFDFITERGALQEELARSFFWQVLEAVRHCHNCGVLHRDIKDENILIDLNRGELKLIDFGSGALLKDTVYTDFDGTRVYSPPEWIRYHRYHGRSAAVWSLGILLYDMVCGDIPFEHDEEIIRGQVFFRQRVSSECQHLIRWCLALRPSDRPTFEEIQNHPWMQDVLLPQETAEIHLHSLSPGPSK

Pim2 kinase = Pim2 kinase (Homo sapiens, UniProt Q9P1W9); experiment: Pim2 ATP depletion assay;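 note: Luciferase-based luminescent readout of ATP remaining after PIM2 phosphorylates a BAD peptide, final 5 nM enzyme, 4 µM ATP, 10 µM peptide, 2.5% DMSO, run to roughly half ATP consumption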
Pim2 kinase, sequence (Q9P1W9 whole entry): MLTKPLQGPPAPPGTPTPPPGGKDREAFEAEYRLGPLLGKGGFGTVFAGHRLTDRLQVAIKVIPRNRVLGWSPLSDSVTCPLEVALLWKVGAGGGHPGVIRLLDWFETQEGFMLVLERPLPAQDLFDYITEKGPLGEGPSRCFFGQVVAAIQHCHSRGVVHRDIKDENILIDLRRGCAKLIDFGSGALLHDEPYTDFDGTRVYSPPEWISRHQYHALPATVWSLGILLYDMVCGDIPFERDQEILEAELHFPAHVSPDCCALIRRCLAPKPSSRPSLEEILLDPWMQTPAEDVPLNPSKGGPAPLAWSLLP

Pim3 kinase = Pim3 kinase (Homo sapiens, UniProt Q86V86); experiment: Pim3 ATP depletion assay

Row | IC50 (Pim1 kinase; read-out: PIM1 IC50) [µM] | IC50 (Pim2 kinase; read-out: PIM2 IC50) [µM] | IC50 (Pim3 kinase; read-out: PIM3 IC50) [µM] | IC50 (Pim1 kinase; read-out: IC50 (μM) PIM1) [µM] | IC50 (Pim2 kinase; read-out: IC50 (μM) PIM2) [µM] | IC50 (Pim3 kinase; read-out: IC50 (μM) PIM3) [µM] | Compound
1 | < 1 | < 1 | < 1 | – | – | – | CN1CCN(c2cc(-c3ccc(N)c(C(=O)Nc4cnccc4-c4cc(N)nc(C(F)(F)F)n4)n3)ccn2)CC1 [Example 573, 5-Amino-2′-(4-methyl-piperazin-1-yl)-[2,4′]bipyridinyl-6-carboxylic acid [4-(6-amino-2-trifluoromethyl-pyrimidin-4-yl)-pyridin-3-yl]-amide]
2 | < 1 | < 1 | < 1 | – | – | – | CCCOc1cncc(-c2nc(C(=O)Nc3cnccc3N3CCC[C@H](N)C3)c(N)cc2F)n1 [Example 738, 3-Amino-5-fluoro-6-(6-propoxy-pyrazin-2-yl)-pyridine-2-carboxylic acid (3-amino-3,4,5,6-tetrahydro-2H-[1,4′]bi-pyridinyl-3′-yl)-amide]
3 | < 1 | < 1 | < 1 | – | – | – | N[C@@H]1CN(c2ccncc2NC(=O)c2ccc(F)c(-c3ccccc3)n2)CC[C@H]1O [Example 681, 5-Fluoro-6-phenyl-pyridine-2-carboxylic acid (3-amino-4-hydroxy-3,4,5,6-tetrahydro-2H-[1,4′]bipyridinyl-3′-yl)-amide]
4 | < 1 | < 1 | < 1 | – | – | – | Nc1ccc(-c2cccc(-n3cccn3)n2)nc1C(=O)Nc1cnccc1N1CCC[C@H](N)C1 [Example 703, 5-Amino-6′-pyrazol-1-yl-[2,2′]bipyridinyl-6-carboxylic acid (3-amino-3,4,5,6-tetra-hydro-2H-[1,4′]bipyridinyl-3′-yl)-amide]
5 | < 1 | < 1 | < 1 | – | – | – | N[C@H]1C[C@@H](O)CN(c2ccncc2NC(=O)c2ccc(F)c(-c3ccccc3F)n2)C1 [Example 684, 5-Fluoro-6-(2-fluoro-phenyl)-pyridine-2-carboxylic acid (5-amino-3-hydroxy-3,4,5,6-tetra-hydro-2H-[1,4′]bipyridinyl-3′-yl)-amide]
6 | < 1 | < 1 | < 1 | – | – | – | N[C@H]1CCCN(c2ccncc2NC(=O)c2cccc(C3CCCCC3)n2)C1 [Example 635, 6-Cyclohexyl-pyridine-2-carboxylic acid (3-amino-3,4,5,6-tetrahydro-2H-[1,4′]bipyridinyl-3′-yl)-amide]
7 | < 1 | < 1 | < 1 | – | – | – | CCOc1cccc(-c2ccc(N)c(C(=O)Nc3cnccc3N3CCC[C@H](N)C3)n2)n1 [Example 723, 5-Amino-6′-ethoxy-[2,2′]bi-pyridinyl-6-carboxylic acid (3-amino-3,4,5,6-tetrahydro-2H-[1,4′]bipyridinyl-3′-yl)-amide]
8 | < 1 | < 1 | < 1 | – | – | – | Nc1ccc(-c2cccc(F)n2)nc1C(=O)Nc1cnccc1N1CCC[C@H](N)C1 [Example 712, 5-Amino-6′-fluoro-[2,2′]bi-pyridinyl-6-carboxylic acid (3-amino-3,4,5,6-tetrahydro-2H-[1,4′]bipyridinyl-3′-yl)-amide]
9 | < 1 | < 1 | < 1 | – | – | – | Nc1cc(-c2ccncc2NC(=O)c2nc(-c3c(F)cccc3F)ccc2N)ccn1 [Example 617, 3-amino-N-(2′-amino-4,4′-bipyridin-3-yl)-6-(2,6-difluorophenyl)pyridine-2-carboxamide]
10 | < 1 | < 1 | < 1 | – | – | – | Nc1ccc(-c2cncc(OCc3ccccc3)n2)nc1C(=O)Nc1cnccc1N1CCC[C@H](N)C1 [Example 750, 3-Amino-6-(6-benzyloxy-pyrazin-2-yl)-pyridine-2-carboxylic acid (3-amino-3,4,5,6-tetrahydro-2H-[1,4′]bi-pyridinyl-3′-yl)-amide]
11 | < 1 | < 1 | < 1 | – | – | – | Cc1cccc(-c2ccc(N)c(C(=O)Nc3cnccc3N3CCC[C@H](N)C3)n2)n1 [Example 726, 5-Amino-6′-methyl-[2,2′]bi-pyridinyl-6-carboxylic acid (3-amino-3,4,5,6-tetrahydro-2H-[1,4′]bipyridinyl-3′-yl)-amide]
12 | < 1 | < 1 | < 1 | – | – | – | Nc1ccc(-c2ccccc2F)nc1C(=O)Nc1cnccc1-c1ccncc1F [Example 616, 3-amino-N-(3′-fluoro-4,4′-bipyridin-3-yl)-6-(2-fluorophenyl)pyridine-2-carboxamide]
13 | < 1 | < 1 | < 1 | – | – | – | COc1nccnc1-c1ccc(N)c(C(=O)Nc2cnccc2N2CCC[C@H](N)C2)n1 [Example 694, 3-Amino-6-(3-methoxy-pyrazin-2-yl)-pyridine-2-carboxylic acid (3-amino-3,4,5,6-tetrahydro-2H-[1,4′]bipyridinyl-3′-yl)-amide]
14 | < 1 | < 1 | < 1 | – | – | – | CC(C)NC(=O)c1ccc(F)c(-c2ccc(N)c(C(=O)Nc3cnccc3N3C[C@@H](N)C[C@@H](O)C3)n2)c1 [Example 677, 3-Amino-6-(2-fluoro-5-isopropylcarbamoyl-phenyl)-pyridine-2-carboxylic acid (3-amino-5-hydroxy-3,4,5,6-tetra-hydro-2H-[1,4′]bipyridinyl-3′-yl)-amide]

Further lines, the molecule ahead of its results:

Row | Compound | IC50 (Pim1 kinase; read-out: PIM1 IC50) [µM] | IC50 (Pim2 kinase; read-out: PIM2 IC50) [µM] | IC50 (Pim3 kinase; read-out: PIM3 IC50) [µM] | IC50 (Pim1 kinase; read-out: IC50 (μM) PIM1) [µM] | IC50 (Pim2 kinase; read-out: IC50 (μM) PIM2) [µM] | IC50 (Pim3 kinase; read-out: IC50 (μM) PIM3) [µM]
15 | CS(=O)(=O)Nc1cccc(-c2nc(C(=O)Nc3cnccc3N3CCC[C@H](N)C3)c(N)cc2F)c1 [Example 498, 3-Amino-5-fluoro-6-(3-methanesulfonylamino-phenyl)-pyridine-2-carboxylic acid (3-amino-3,4,5,6-tetrahydro-2H-[1,4′]bipyridinyl-3′-yl)-amide] | – | – | – | < 1 | < 1 | < 1
16 | Nc1cc(-c2ccncc2NC(=O)c2nc(-c3c(F)cccc3F)ccc2N)nc(C(F)(F)F)n1 [Example 266, 3-Amino-6-(2,6-difluoro-phenyl)-pyridine-2-carboxylic acid [4-(6-amino-2-trifluoromethyl-pyrimidin-4-yl)-pyridin-3-yl]-amide] | – | – | – | < 1 | < 1 | < 1
17 | Nc1ccc(-c2c(F)cccc2F)nc1C(=O)Nc1cnccc1N1C[C@@H](N)C[C@H](OC(=O)c2ccccc2)C1 [Example 295, Benzoic acid 5-amino-3′-{[3-amino-6-(2,6-difluoro-phenyl)-pyridine-2-carbonyl]-amino}-3,4,5,6-tetrahydro-2H-[1,4′]bi-pyridinyl-3-yl ester] | – | – | – | < 1 | 1 to 10 | < 1
18 | CCCNC(=O)c1ccc(F)c(-c2ccc(N)c(C(=O)Nc3cnccc3-c3cc(N)nc(C)n3)n2)c1 [Example 565, 3-Amino-6-(2-fluoro-5-propylcarbamoyl-phenyl)-pyridine-2-carboxylic acid [4-(6-amino-2-methyl-pyrimidin-4-yl)-pyridin-3-yl]-amide] | < 1 | < 1 | < 1 | – | – | –
19 | Nc1cc(-c2ccncc2NC(=O)c2nc(-c3ccccc3)ccc2N)nc(C(F)(F)F)n1 [Example 531, 3-Amino-6-phenyl-pyridine-2-carboxylic acid [4-(6-amino-2-trifluoromethyl-pyrimidin-4-yl)-pyridin-3-yl]-amide] | – | – | – | < 1 | < 1 | < 1
20 | Nc1ccc(C2CCCCC2)nc1C(=O)Nc1cnccc1N1CC(N)CC(C(F)(F)F)C1 (stereo not drawn) [Example 279, 3-Amino-6-cyclohexyl-pyridine-2-carboxylic acid (3-amino-5-trifluoromethyl-3,4,5,6-tetra-hydro-2H-[1,4′]bipyridinyl-3′-yl)-amide] | – | – | – | < 1 | < 1 | < 1
21 | Cc1ccsc1-c1ccc(N)c(C(=O)Nc2cnccc2N2CCC[C@H](N)C2)n1 [Example 448, 3-Amino-6-(3-methyl-thiophen-2-yl)-pyridine-2-carboxylic acid (3-amino-3,4,5,6-tetrahydro-2H-[1,4′]bipyridinyl-3′-yl)-amide] | – | – | – | < 1 | < 1 | < 1
22 | CCCOc1ccc(F)c(-c2ccc(N)c(C(=O)Nc3cnccc3-c3cc(N)nc(SC)n3)n2)c1F [Example 532, 3-Amino-6-(2,6-difluoro-3-propoxy-phenyl)-pyridine-2-carboxylic acid [4-(6-amino-2-methylsulfanyl-pyrimidin-4-yl)-pyridin-3-yl]-amide] | – | – | – | < 1 | < 1 | < 1
23 | Cc1nc(N)cc(-c2ccncc2NC(=O)c2nc(-c3c(F)ccc(OC(C)C)c3F)ccc2N)n1 [Example 537, 3-Amino-6-(2,6-difluoro-3-isopropoxy-phenyl)-pyridine-2-carboxylic acid [4-(6-amino-2-methyl-pyrimidin-4-yl)-pyridin-3-yl]-amide] | < 1 | < 1 | < 1 | – | – | –
24 | COc1ccc(F)c(-c2nc(C(=O)Nc3cnccc3N3CCC[C@H](N)C3)c(N)cc2F)c1 [Example 502, 3-Amino-5-fluoro-6-(2-fluoro-5-methoxy-phenyl)-pyridine-2-carboxylic acid (3-amino-3,4,5,6-tetrahydro-2H-[1,4′]bipyridinyl-3′-yl)-amide] | – | – | – | < 1 | < 1 | < 1
25 | Nc1ccc(-c2c(F)cccc2F)nc1C(=O)Nc1cnccc1N1CC[C@@H]2OC(=O)N[C@@H]2C1 [Example 303, 3-Amino-6-(2,6-difluoro-phenyl)-pyridine-2-carboxylic acid [4-(2-oxo-hexahydro-oxazolo[4,5-c]pyridin-5-yl)-pyridin-3-yl]-amide] | – | – | – | < 1 | < 1 | < 1
26 | Nc1ccc(-c2cccc(S(N)(=O)=O)c2)nc1C(=O)Nc1cnccc1N1CCC[C@H](N)C1 [Example 481, 3-Amino-6-(3-sulfamoyl-phenyl)-pyridine-2-carboxylic acid (3-amino-3,4,5,6-tetrahydro-2H-[1,4′]bipyridinyl-3′-yl)-amide] | – | – | – | < 1 | < 1 | < 1
